Several values for one entry are separate records, joined by “and”; a condition that tells them apart may be missing. Equal values may be shown once. Read-outs that look alike come from different tables or passages of the source.
What was measured:
[1] = Toxicity analysis of test compounds in 2.2.15 cells (neutral red dye uptake); assay type: cell-based; details: human
Protocol: Toxicity analyses were performed in order to assess whether any observed antiviral effects are due to a general effect on cell viability. The method used was based on the uptake of neutral red dye, a standard and widely used assay for cell viability in a variety of virus-host systems, including HSV (herpes simplex virus) and HIV. Details of the procedure are provided in the toxicity table legends.
The test compounds were used in the form of 40 mM stock solutions in DMSO (frozen on dry ice). Daily aliquots of the test samples were made and frozen at -20° C. so that each individual aliquot would be subjected to a single freeze-thaw cycle. The daily test aliquots were thawed, suspended into culture medium at room temperature and immediately added to the cell cultures° The compounds were tested at 0.0 and 1 μM for antiviral activity. The compounds were tested for toxicity at concentrations up to 300 μM.
Toxicity analyses were performed in 96-well flat bottomed tissue culture plates. Cells for the toxicity analyses were cultured and treated with test compounds with the same schedule as used for the antiviral evaluations. Each compound was tested at 4 concentrations, each in triplicate cultures. Uptake of neutral red dye was used to determine the relative level of toxicity. The absorbance of internalized dye at […] (A510) was used for the quantitative analysis. Values are presented as a percentage of the average A510 values (±standard deviations) in 9 separate cultures of untreated cells maintained on the same 96-well plate as the test compounds.

HBV = test: Effect of nucleosides on HBV production in 2.2.15 cells (HBV virion DNA and intracellular HBV DNA); assay type: cell-based, Hepatitis B virus; details: for HBV virion DNA, day 0 / HBV virion DNA, day 3 / HBV virion DNA, day 6 / HBV virion DNA, day 9: individual culture; for HBV virion DNA, day 0, mean / HBV virion DNA, day 3, mean / HBV virion DNA, day 6, mean / HBV virion DNA, day 9, mean / Intracellular HBV DNA on Day 10, Mono, mean / Intracellular HBV DNA on Day 10, RI, mean: mean of 4 cultures; for inhibition at 1 µM / inhibition: Hepatitis B virus
Protocol: The ability of β-D-dioxolane-nucleosides to inhibit HBV can be measured by various experimental techniques. The assay used herein to evaluate the ability of the disclosed compounds to inhibit the replication of HBV is described in detail in Korba and Gerin, Antiviral Res. 19:55-70 (1992). […] The other compounds disclosed herein are evaluated similarly.
The antiviral evaluations were performed on two separate passages of cells, two cultures per passage (4 cultures total). All wells, in all plates, were seeded at the same density and at the same time.
Due to the inherent variations in the levels of both intracellular and extracellular HBV DNA, only depressions greater than 3.0-fold (for HBV virion DNA) or 2.5-fold (for HBV DNA replication intermediates) from the average levels for these HBV DNA forms in untreated cells are generally considered to be statistically significant [P<0.05] (Korba and Gerin, Antiviral Res. 19: 55-70, 1992). The levels of integrated HBV DNA in each cellular DNA preparation (which remain constant on a per cell basis in these experiments) were used to calculate the levels of intracellular HBV DNA forms, thereby eliminating technical variations inherent in the blot hybridization assays.
The test compounds were used in the form of 40 mM stock solutions in DMSO (frozen on dry ice). Daily aliquots of the test samples were made and frozen at -20° C. so that each individual aliquot would be subjected to a single freeze-thaw cycle. […] The compounds were tested for toxicity at concentrations up to 300 μM.

[2] = 0.1 μM, listed as (-)- -2,6-diNH2-purine-dioxolane
[3] = 1.0 μM ("1.0 M" printed for the 2,6-DiNH2 compound), listed as (-)- -2,6-DiNH2-purine-dioxolane
[4] = 1.0 μM ("1.0 M" printed for the 2,6-DiNH2 compound)
[5] = 0 h, 1.0 μM ("1.0 M" printed for the 2,6-DiNH2 compound), read-out: % inhibition, HBV virion DNA, day 0
[6] = 0 h, read-out: % inhibition, HBV virion DNA, day 0
[7] = 72 h, 1.0 μM ("1.0 M" printed for the 2,6-DiNH2 compound), read-out: % inhibition, HBV virion DNA, day 3
[8] = 72 h, read-out: % inhibition, HBV virion DNA, day 3
[9] = 144 h, 1.0 μM ("1.0 M" printed for the 2,6-DiNH2 compound), read-out: % inhibition, HBV virion DNA, day 6
[10] = 144 h, read-out: % inhibition, HBV virion DNA, day 6
[11] = 216 h, 1.0 μM ("1.0 M" printed for the 2,6-DiNH2 compound), read-out: % inhibition, HBV virion DNA, day 9
[12] = 216 h, read-out: % inhibition, HBV virion DNA, day 9
[13] = 240 h, 1.0 μM ("1.0 M" printed for the 2,6-DiNH2 compound), read-out: % inhibition, intracellular HBV DNA Mono, Day 10
[14] = 240 h, 1.0 μM ("1.0 M" printed for the 2,6-DiNH2 compound), read-out: % inhibition, intracellular HBV DNA RI, Day 10
[15] = 240 h, read-out: % inhibition, intracellular HBV DNA Mono, Day 10
[16] = 240 h, read-out: % inhibition, intracellular HBV DNA RI, Day 10
[17] = 0.1 μM, listed as (-)- -2,6-dioxolane-G
[18] = 1.0 μM ("1.0 M" printed for the 2,6-DiNH2 compound), listed as (-)- -2,6-dioxolane-G

Row | SMILES | viability at 10 µM [1] | viability at 30 µM [1] | viability at 100 µM [1] | viability at 300 µM [1] | HBV virion DNA, day 0, mean (HBV; 0.1 μM) | HBV virion DNA, day 3, mean (HBV; 0.1 μM) | HBV virion DNA, day 6, mean (HBV; 0.1 μM) | HBV virion DNA, day 9, mean (HBV; 0.1 μM) | Intracellular HBV DNA on Day 10, Mono, mean (HBV; 0.1 μM) | Intracellular HBV DNA on Day 10, RI, mean (HBV; 0.1 μM) | HBV virion DNA, day 0, mean (HBV; [4]) | HBV virion DNA, day 3, mean (HBV; [4]) | HBV virion DNA, day 6, mean (HBV; [4]) | HBV virion DNA, day 9, mean (HBV; [4]) | Intracellular HBV DNA on Day 10, Mono, mean (HBV; [4]) | Intracellular HBV DNA on Day 10, RI, mean (HBV; [4]) | inhibition at 1 µM (HBV; [5]) | inhibition (HBV; [6]) | inhibition at 1 µM (HBV; [7]) | inhibition (HBV; [8]) | also measured
1 | Nc1nc(N)c2ncn([C@H]3CO[C@@H](CO)O3)c2n1 [DAPD, (-)-(2R,4R)-2-amino-9-[(2-hydroxymethyl)-1,3-dioxolan-4-yl]adenine] | 99 ± 1% | 99 ± 3% | 88 ± 1% | 49 ± 3% | 62.75 pg/ml of cultured medium | 61.75 pg/ml of cultured medium | 30.75 pg/ml of cultured medium | 7.00 pg/ml of cultured medium | 2.35 pg/μM of cellular DNA | 12.00 pg/μM of cellular DNA | 67.75 pg/ml of cultured medium | 50.75 pg/ml of cultured medium | 12.00 pg/ml of cultured medium | 0.25 pg/ml of cultured medium | 1.15 pg/μM of cellular DNA | 2.25 pg/μM of cellular DNA | -7.54% | 0.4% | 21.6% | 4.63% | HBV virion DNA, day 0 (HBV; 0.1 μM): 77 pg/ml of cultured medium; HBV virion DNA, day 0 (HBV; [2]): 52 pg/ml of cultured medium and 58 pg/ml of cultured medium and 64 pg/ml of cultured medium; HBV virion DNA, day 3 (HBV; [2]): 67 pg/ml of cultured medium and 59 pg/ml of cultured medium and 62 pg/ml of cultured medium; HBV virion DNA, day 6 (HBV; [2]): 28 pg/ml of cultured medium and 34 pg/ml of cultured medium and 35 pg/ml of cultured medium and 26 pg/ml of cultured medium; HBV virion DNA, day 9 (HBV; [2]): 5 pg/ml of cultured medium and 6 pg/ml of cultured medium and 9 pg/ml of cultured medium and 8 pg/ml of cultured medium; HBV virion DNA, day 0 (HBV; [3]): 66 pg/ml of cultured medium and 70 pg/ml of cultured medium and 74 pg/ml of cultured medium and 61 pg/ml of cultured medium; HBV virion DNA, day 3 (HBV; [3]): 59 pg/ml of cultured medium and 45 pg/ml of cultured medium and 56 pg/ml of cultured medium and 43 pg/ml of cultured medium; HBV virion DNA, day 6 (HBV; [3]): 12 pg/ml of cultured medium and 10 pg/ml of cultured medium and 15 pg/ml of cultured medium and 11 pg/ml of cultured medium; HBV virion DNA, day 9 (HBV; 1.0 μM ("1.0 M" printed for the 2,6-DiNH2 compound), zero = undetectable, listed as (-)- -2,6-DiNH2-purine-dioxolane): 0 pg/ml of cultured medium and 1 pg/ml of cultured medium; inhibition at 1 µM (HBV; [9]): 84.4%; inhibition (HBV; [10]): 59.9%; inhibition at 1 µM (HBV; [11]): 99.7%; inhibition (HBV; [12]): 90.6%; inhibition at 1 µM (HBV; [13]): 54.5%; inhibition at 1 µM (HBV; [14]): 96.9%; inhibition (HBV; [15]): 6.93%; inhibition (HBV; [16]): 83.7%
2 | Nc1nc2c(ncn2[C@H]2CO[C@@H](CO)O2)c(=O)[nH]1 [Dioxolane-G, (-)-(2R,4R)-9-[(2-hydroxymethyl)-1,3-dioxolan-4-yl]guanine] | 100 ± 3% | 101 ± 2% | 88 ± 3% | 56 ± 3% | 62.75 pg/ml of cultured medium | 68.25 pg/ml of cultured medium | 70.25 pg/ml of cultured medium | 13.75 pg/ml of cultured medium | 2.35 pg/μM of cellular DNA | 24.00 pg/μM of cellular DNA | 62.25 pg/ml of cultured medium | 66.75 pg/ml of cultured medium | 22.25 pg/ml of cultured medium | 2.75 pg/ml of cultured medium | 1.85 pg/μM of cellular DNA | 4.75 pg/μM of cellular DNA | 1.19% | 0.4% | -1.54% | -5.41% | HBV virion DNA, day 0 (HBV; [17]): 51 pg/ml of cultured medium and 59 pg/ml of cultured medium and 74 pg/ml of cultured medium and 67 pg/ml of cultured medium; HBV virion DNA, day 3 (HBV; [17]): 77 pg/ml of cultured medium and 62 pg/ml of cultured medium and 73 pg/ml of cultured medium and 61 pg/ml of cultured medium; HBV virion DNA, day 6 (HBV; [17]): 60 pg/ml of cultured medium and 70 pg/ml of cultured medium and 69 pg/ml of cultured medium and 82 pg/ml of cultured medium; HBV virion DNA, day 9 (HBV; [17]): 18 pg/ml of cultured medium and 12 pg/ml of cultured medium and 14 pg/ml of cultured medium and 11 pg/ml of cultured medium; HBV virion DNA, day 0 (HBV; [18]): 70 pg/ml of cultured medium and 50 pg/ml of cultured medium and 56 pg/ml of cultured medium and 73 pg/ml of cultured medium; HBV virion DNA, day 3 (HBV; [18]): 86 pg/ml of cultured medium and 59 pg/ml of cultured medium and 56 pg/ml of cultured medium and 62 pg/ml of cultured medium; HBV virion DNA, day 6 (HBV; [18]): 22 pg/ml of cultured medium and 24 pg/ml of cultured medium and 23 pg/ml of cultured medium and 20 pg/ml of cultured medium; HBV virion DNA, day 9 (HBV; 1.0 μM ("1.0 M" printed for the 2,6-DiNH2 compound), zero = undetectable, listed as (-)- -2,6-dioxolane-G): 2 pg/ml of cultured medium and 4 pg/ml of cultured medium and 3 pg/ml of cultured medium; inhibition at 1 µM (HBV; [9]): 71%; inhibition (HBV; [10]): 8.47%; inhibition at 1 µM (HBV; [11]): 96.3%; inhibition (HBV; [12]): 81.5%; inhibition at 1 µM (HBV; [13]): 26.7%; inhibition at 1 µM (HBV; [14]): 93.5%; inhibition (HBV; [15]): 6.93%; inhibition (HBV; [16]): 67.3%

Source: US5444063A, “Enantiomerically pure β-D-dioxolane nucleosides with selective anti-Hepatitis B virus activity” (priority 1992, dated 1995)
